# According to patent US20230041065A1, “METHODS FOR GENERATING HEMATOPOIETIC STEM CELLS” (The Brigham and Women`s Hospital, Inc., priority 2019, published 2023):
# Entries after “also recorded” stand apart in the source; their conditions may differ.
# Experiments:
# [1] = tested on: cd41:eGFP+ HSCs emerging from flk1:mCherry+ endothelial cells; assay: Time-lapse confocal imaging of cd41:eGFP+ HSCs emerging from flk1:mCherry+ endothelial cells in transgenic embryos; assay type: in vivo, zebrafish; settings: 26-42 hpf
# Protocol: Mice were purchased Cd45.2 (C57BL6/J) and Cd45.1 (SJL) from The Jackson Laboratory and zebrafish morpholinos from GeneTools. Microangiography was performed by injecting fluorescent-labeled dextran dye in the atrium of zebrafish heart and its passage was recorded using live imaging. Immunostaining of zebrafish heart and mouse AGM were analyzed using an inverted fluorescent microscope. Cardiac tamponade, heart rate, and pulse frequency were analyzed in zebrafish embryos using bright field imaging or time-lapse confocal microscopy. The movement of red blood cells in blood vessels was analyzed as well as the endothelial-to-HSC transition in zebrafish transgenic embryos using time-lapse confocal imaging.
# Zebrafish embryos were treated with the following chemical modulators in E3 fish media: 100 uM L-NAME (Fisher Scientific), 50 uM Digitoxigenin (Sigma), 25-50 uM Yoda1 (Cayman Chemical), 1 uM Nanaomycin (Nana; Fisher Scientific), 100 uM Gadolinium chloride (GdCl3; Sigma), 5-10 uM 4α-phorbol 12, 13-didecanaote (4Apdd; Sigma), or GSK205 (10 uM).
# cd41:eGFP were crossed with flk1:mCherry zebrafish and flk1:mCherry with lcr:eGFP zebrafish and injected morpholino in their transgenic embryos. […] The relative movement of lcr:eGFP^+ red blood cells was analyzed in the context of flk1:mCherry^+ endothelium. We performed image analysis using Imaris (Bitplane) software.
# Dnmt3b = Dnmt3b protein level in nuclear fractions of E11.5 AGM cells; assay type: cell-based, mouse
# Protocol: (§1) RNA-sequencing analyses were performed to measure gene expression patterns in mouse AGM treated with cyclic strain or pharmacological modulators. Using computational algorithms, hierarchical clustering was performed of differentially expressed genes as well as measured their overrepresented biological processes and pathways. Gene expression clusters of differentially expressed genes were analyzed and their mean expression level across cell populations compared. Next, Venn comparison of up- and down-genes was constructed to analyze candidate(s) important for cyclic strain- or pharmacological modulator(s)-mediated the endothelial-to-HSC transition. Furthermore, Dnmt3b and Dnmt3a protein expressions were analyzed in nuclear fractions of mouse AGM cells using EqiQuick assay kits. Data are presented as mean±s.d. unless otherwise noted. Statistical analyses were performed by paired or un-paired Student's t-tests. Significance was set at P<0.05.
# Nuclear extracts from AGM explants were harvested using an EpiQuik Nuclear Extraction Kit (Epigentek Group Inc.). Dnmt3b and Dnmt3a protein levels were analyzed using a colorimetric EpiQuik Assay Kit (Epigentek Group Inc.), according to the manufacturer's instructions. Concentration of Dnmt3b and Dnmt3a is relative to 1 μg of nuclear extract proteins.
# E11.5 AGM cells [2] = assay: Whole transcriptome (RNA-seq) analyses of treated E11.5 AGM cells; assay type: cell-based, mouse
# Protocol: as §1
# Total RNA from E11.5 mouse AGM explant cultures was isolated (control, stretch, Yoda1 and 4αPDD conditions) with the RNAeasy MiniKit (QIAGEN). Our cDNA libraries were generated by BGI Americas Corporation and sequenced with a HiSeq4000 device (Illumina) at eight samples per lane. We mapped our sequenced read fragments to the mouse reference genome GRCm38 (ENSEMBL release 69) using the Genomic Short-Read Nucleotide Alignment program (version 2012-07-20). DESeq2 and DEXSeq were used to test for differential expression (FDR=0.1) and differential exon use, respectively. Gene expression clusters of differentially expressed genes were analyzed and their mean expression level across cell populations compared. Next, Venn comparison was performed of up- and down-genes to analyze candidate(s) important for cyclic strain- or pharmacological modulator(s)-mediating the endothelial-to-HSC transition. Specifically, we performed hierarchical clustering with bootstrap analyses using the gplots package (Warners et al., 2017) in R (R Development Core Team, 2012). […]
# E11.5 AGM cells [3] = assay: Hematopoietic CFU and FACS assays on E11.5 AGM cells; assay type: cell-based, mouse
# Protocol: Pulsating blood vessels like conditions were stimulated in vitro using Flexcell FX-4000 machine. To analyze roles of pharmacological targets in regulating the endothelial-to-HSC transition, mouse embryo-derived AGM or whole mouse embryo were exposed ex vivo with biomechanical stretching, chemicals, or drugs. Next, hematopoietic colony formation assays were performed by incubating mouse AGM-derived cells in StemCell M3434 media for seven days. Serial transplantation of AGM-derived HSCs in lethally irradiated SJL mice were performed. The stem cell frequency upon biomechanical stretching was analyzed using a limiting dilution assay. To characterize properties of AGM-HSC-derived blood cells in primary transplants, percentage chimerism and reconstitution was measured using FACS, globin transcripts were analyzed using quantitative reverse transcriptase-PCR, myeloperoxidase amount was measured using PicoKine ELISA kit, TCR-β rearrangement was analyzed using PCR for TCR-β locus, pre-immune IG detection was analyzed using Thermo-Fisher Mouse Ig Isotyping kit, and delayed-type hypersensitivity was analyzed by injecting sheep RBC (Rockland Immunochemicals) in the footpad of pre-sensitized mice. E11.5 AGM were harvested from C57BL6/J Cd45.2 mouse embryos, and a single cell suspension of a three-embryo equivalent of cells was seeded on each well of a BioFlex six-well culture plate ([…]). We cultured cells overnight with the application of cyclic strain (Flexcell® FX4000TM Tension System) and/or treatment with chemical modulators (2-100 μM Yoda1, 1 μM Nanaomycin, 100 μM Gdcl3, 1 uM GsMT×4, 5-20 μM 4αPDD, 10 uM GSK205). Next, harvested cells were used to perform transplant, fluorescence-activated cell sorting (FACS) analysis, and colony-forming unit (CFU) assays. For CFU assays, cells from AGM explant or ex vivo were plated in MethoCult GF M3434 media (StemCell Technologies). Seven days after seeding, we analyzed their capacity to make granulocyte, erythroid, macrophage, megakaryocyte (GEMM), granulocyte macrophage (GM), granulocyte (G), macrophage (M), and erythroid (E) colonies.
smiles,measurement,setting,value
"Clc1cccc(Cl)c1CSc1nnc(-c2cnccn2)s1 [Yoda1, 2-[5-[[(2,6-Dichlorophenyl)methyl]thio]-1,3,4-thiadiazol-2-yl]-pyrazine]",HSC formation (endothelial-to-HSC transition),[1]; control embryos,stimulates HSC formation in control embryos
same,HSC formation (endothelial-to-HSC transition),[1]; sih-MO embryos,rescues HSC formation in sih-MO embryos
same,Dnmt3b protein expression,Dnmt3b,specifically stimulates Dnmt3b protein expression levels
same,Dnmt3b and Gimap6 transcript expression (Venn comparison of up-regulated genes),E11.5 AGM cells [2],specifically stimulate Dnmt3b transcript expression and Gimap6 transcript expression
same,expression of endothelial genes,E11.5 AGM cells [2],diminished expression of endothelial genes; also recorded: repress the expression of endothelial genes
same,expression of hematopoietic genes,E11.5 AGM cells [2],elevated expression of hematopoietic genes; also recorded: stimulating the expression of hematopoietic genes
same,GEMM formation,E11.5 AGM cells [3]; 25 μM,enhances GEMM formation
same,hematopoietic colony formation (endothelial-to-hematopoietic transition),E11.5 AGM cells [3]; E11.5 AGM cells vs. control,stimulates the endothelial-to-hematopoietic transition
